Experimental findings from patent US10336762B2 (priority 2017, dated 2019) are described below.

Molecules are shown by their SMILES. Some results are limits rather than exact numbers.

In experiment [1] the target is IRAK4 enzyme (Homo sapiens (Human), UniProt Q9NWZ3). In words: biochemical. It counts as biochemical. To be noted: IRAK4 enzyme, TR-FRET (HTRF), 500 μM ATP.
The test system of experiment [2] is TNFα. Description: cells. It is filed as cell-based, human. Particulars: Homo sapiens, Monocyte, LPS-stimulated human monocytes, TNFα content; read-out: EC50 TNF.

Chain of IRAK4 enzyme (Q9NWZ3 whole entry): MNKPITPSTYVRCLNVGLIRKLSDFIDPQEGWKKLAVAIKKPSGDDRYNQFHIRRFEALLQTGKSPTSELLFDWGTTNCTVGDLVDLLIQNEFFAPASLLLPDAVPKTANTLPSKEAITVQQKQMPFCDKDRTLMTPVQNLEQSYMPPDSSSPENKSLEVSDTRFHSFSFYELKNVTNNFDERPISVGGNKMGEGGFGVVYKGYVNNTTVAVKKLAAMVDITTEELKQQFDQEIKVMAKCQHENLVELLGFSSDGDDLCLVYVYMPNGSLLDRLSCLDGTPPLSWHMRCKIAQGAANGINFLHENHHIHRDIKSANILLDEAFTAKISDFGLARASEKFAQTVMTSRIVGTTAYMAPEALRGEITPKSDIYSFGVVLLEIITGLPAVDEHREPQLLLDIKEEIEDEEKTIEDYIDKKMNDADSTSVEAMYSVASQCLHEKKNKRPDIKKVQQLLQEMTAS

A word on the IC50: it is the concentration that gives 50% inhibition. High values mean a need for much substance, low ones inhibition by little substance. Broadly, the EC50 is the concentration at which the effect is half-maximal. Consider `CCc1ncc(Nc2cc(-c3ccc4cc(C#N)cnn34)ncc2C(=O)NC[C@@H](F)C(C)(C)O)cn1` [Example 680, (R)-6-(3-cyanopyrrolo[1,2-b]pyridazin-7-yl)-4-((2-ethylpyrimidin-5-yl)amino)-N-(2-fluoro-3-hydroxy-3-methylbutyl)nicotinamide], for which the IC50 in experiment [1] was < 1 nM. Also, the EC50 in experiment [2] was determined as 15 nM.

As to `CC(C)(O)[C@H](F)CNC(=O)c1cnc(-c2ccc3cc(C#N)cnn23)cc1Nc1cnc(N2CCC2)nc1` [Example 681, (R)-4-((2-(azetidin-1-yl)pyrimidin-5-yl)amino)-6-(3-cyanopyrrolo[1,2-b]pyridazin-7-yl)-N-(2-fluoro-3-hydroxy-3-methylbutyl) nicotinamide], the IC50 in experiment [1] was < 1 nM. For the same compound, in experiment [2], the EC50 stood at 6 nM.

In the case of `CC(C)(O)[C@H](F)CNC(=O)c1cnc(-c2ccc3cc(C#N)cnn23)cc1Nc1ccc(N2CC(F)(F)C2)nc1` [Example 682, (R)-6-(3-cyanopyrrolo[1,2-b]pyridazin-7-yl)-4-((6-(3,3-difluoroazetidin-1-yl)pyridin-3-yl)amino)-N-(2-fluoro-3-hydroxy-3-methylbutyl) nicotinamide], the IC50 in experiment [1] was 1 nM. For the same compound, the EC50 in experiment [2] came out at 22 nM.

`CC(C)(C#N)c1ccc(Nc2cc(-c3ccc4cc(C#N)cnn34)ncc2C(=O)NC[C@@H](F)C(C)(C)O)cn1` [Example 683, (R)-4-((6-(2-cyanopropan-2-yl)pyridin-3-yl)amino)-6-(3-cyanopyrrolo[1,2-b]pyridazin-7-yl)-N-(2-fluoro-3-hydroxy-3-methyl-butyl)nicotinamide] came in with an IC50 in experiment [1] of 1 nM. Moreover, the EC50 in experiment [2] is 45 nM.

With `CC(C)(O)[C@H](F)CNC(=O)c1cnc(-c2ccc3cc(C#N)cnn23)cc1Nc1ccc(N2CC3(COC3)C2)nc1` [Example 684, (R)-4-((6-(2-oxa-6-azaspiro[3.3]heptan-6-yl)pyridin-3-yl)amino)-6-(3-cyanopyrrolo[1,2-b]pyridazin-7-yl)-N-(2-fluoro-3-hydroxy-3-methylbutyl)nicotinamide], the IC50 in experiment [1] came out at 1 nM. Further, the EC50 in experiment [2] amounted to 89 nM.

`COc1cc(Nc2cc(-c3ccc4cc(C#N)cnn34)ncc2C(=O)NC[C@@H](F)C(C)(C)O)ccc1N1CCOCC1` [Example 685, (R)-6-(3-cyanopyrrolo[1,2-b]pyridazin-7-yl)-N-(2-fluoro-3-hydroxy-3-methylbutyl)-4-((3-methoxy-4-morpholino-phenyl)amino)nicotinamide]: inhibition in experiment [1] was half-maximal at 10 nM (IC50). In addition, in experiment [2], the EC50 was 398 nM.

Consider `C[C@@H]1CN(c2ncc(Nc3cc(-c4ccc5cc(C#N)cnn45)ncc3C(=O)NC[C@@H](F)C(C)(C)O)cn2)C[C@H](C)O1` [Example 686, 6-(3-cyanopyrrolo[1,2-b]pyridazin-7-yl)-4-((2-((2S,6R)-2,6-dimethyl-morpholino)pyrimidin-5-yl)amino)-N-((R)-2-fluoro-3-hydroxy-3-methylbutyl) nicotinamide], for which the IC50 in experiment [1] is < 1 nM. The EC50 in experiment [2] came out at 20 nM.

Turning to `CC(C)(O)[C@H](F)CNC(=O)c1cnc(-c2ccc3cc(C#N)cnn23)cc1Nc1ccc(F)cn1` [Example 687, (R)-6-(3-cyanopyrrolo[1,2-b]pyridazin-7-yl)-N-(2-fluoro-3-hydroxy-3-methylbutyl)-4-((5-fluoro-pyridin-2-yl)amino) nicotinamide], in experiment [1], the IC50 is < 1 nM. Besides, the EC50 in experiment [2] stood at 42 nM.

With `CC(C)(O)[C@H](F)CNC(=O)c1cnc(-c2ccc3cc(C#N)cnn23)cc1Nc1ccc(N2CCS(=O)(=O)CC2)cc1` [Example 688, (R)-6-(3-cyanopyrrolo[1,2-b]pyridazin-7-yl)-4-((4-(1,1-dioxidothiomorpholino)phenyl)amino)-N-(2-fluoro-3-hydroxy-3-methylbutyl) nicotinamide], the IC50 in experiment [1] is < 1 nM. Also, in experiment [2], the EC50 was 24 nM.

`CC(C)(O)[C@H](F)CNC(=O)c1cnc(-c2ccc3cc(C#N)cnn23)cc1Nc1cnc(N2CC3(CCOCC3)C2)nc1` [Example 689, (R)-4-((2-(7-oxa-2-azaspiro[3.5]nonan-2-yl)pyrimidin-5-yl)amino)-6-(3-cyanopyrrolo[1,2-b]pyridazin-7-yl)-N-(2-fluoro-3-hydroxy-3-methylbutyl)nicotinamide] gave an IC50 in experiment [1] of 1 nM. For the same compound, the EC50 in experiment [2] was determined as 180 nM.

Compound `CC(C)(O)[C@H](F)CNC(=O)c1cnc(-c2ccc3cc(C#N)cnn23)cc1N[C@H]1C[C@H](CN)C1` [Example 692, 4-(((1r,3R)-3-(amino-methyl)cyclobutyl)amino)-6-(3-cyanopyrrolo[1,2-b]pyridazin-7-yl)-N-((R)-2-fluoro-3-hydroxy-3-methylbutyl)nicotinamide] displayed an IC50 in experiment [1] of 1 nM. The EC50 in experiment [2] is 315 nM.

The compound `CC(C)(O)[C@H](F)CNC(=O)c1cnc(-c2ccc3cc(C#N)cnn23)cc1-c1ccc2cc(C#N)cnn12` [Example 693, (R)-4,6-bis(3-cyano-pyrrolo[1,2-b]pyridazin-7-yl)-N-(2-fluoro-3-hydroxy-3-methylbutyl)nicotinamide] came in with an IC50 in experiment [1] of 35 nM. Further, the EC50 in experiment [2] came to 821 nM.

Regarding `Cc1nnc(NC[C@H]2C[C@H](Nc3cc(-c4ccc5cc(C#N)cnn45)ncc3C(=O)NC[C@@H](F)C(C)(C)O)C2)o1` [Example 694, 6-(3-cyanopyrrolo[1,2-b]pyridazin-7-yl)-N—((R)-2-fluoro-3-hydroxy-3-methylbutyl)-4-(((1r,3R)-3-(((5-methyl-1,3,4-oxadiazol-2-yl)amino)methyl)cyclobutyl)amino)nicotinamide], the IC50 in experiment [1] is < 1 nM. For the same compound, the EC50 in experiment [2] was 102 nM.

For the compound `CC(C)(O)[C@H](F)CNC(=O)c1cnc(-c2ccc3cc(C#N)cnn23)cc1N[C@H]1C[C@H](CNC(=O)C2CC2(F)F)C1` (stereo partly drawn) [Example 695, 6-(3-cyanopyrrolo[1,2-b]pyridazin-7-yl)-4-(((1R,3R)-3-(((R)-2,2-difluorocyclopropane-1-carboxamido)methyl)cyclobutyl)amino)-N-((R)-2-fluoro-3-hydroxy-3-methylbutyl)nicotinamide], the IC50 in experiment [1] is < 1 nM. In experiment [2], the EC50 stood at 15 nM.

With `CC(C)(O)[C@H](F)CNC(=O)c1cnc(-c2ccc3cc(C#N)cnn23)cc1N[C@H]1C[C@H](CNc2nnc(C3CC3)o2)C1` [Example 696, 6-(3-cyanopyrrolo[1,2-b]pyridazin-7-yl)-4-(((1r,3R)-3-(((5-cyclopropyl-1,3,4-oxadiazol-2-yl)amino)methyl)cyclobutyl)amino)-N-((R)-2-fluoro-3-hydroxy-3-methylbutyl)nicotinamide], the IC50 in experiment [1] is < 1 nM. In experiment [2], the EC50 was found to be 103 nM.

With `COCc1nnc(NC[C@H]2C[C@H](Nc3cc(-c4ccc5cc(C#N)cnn45)ncc3C(=O)NC[C@@H](F)C(C)(C)O)C2)o1` [Example 697, 6-(3-cyanopyrrolo[1,2-b]pyridazin-7-yl)-N-((R)-2-fluoro-3-hydroxy-3-methylbutyl)-4-(((1r,3R)-3-(((5-(methoxymethyl)-1,3,4-oxadiazol-2-yl)amino)methyl)cyclobutyl)amino) nicotinamide], in experiment [1], the IC50 was determined as 1 nM. Further, the EC50 in experiment [2] was determined as 171 nM.

`COC(=O)NC[C@H]1C[C@@H](Nc2cc(-c3ccc4cc(C#N)cnn34)ncc2C(=O)NC[C@@H](F)C(C)(C)O)C1` [Example 698, methyl (((1S,3s)-3-((2-(3-cyanopyrrolo[1,2-b]pyridazin-7-yl)-5-(((R)-2-fluoro-3-hydroxy-3-methylbutyl)carbamoyl)pyridin-4-yl)amino)cyclo-butyl)methyl)carbamate]: 3 nM corresponded to half-maximal inhibition in experiment [1] (IC50). Moreover, the concentration for a half-maximal effect (EC50) in experiment [2] is 201 nM.

For `CC(C)(O)[C@H](F)CNC(=O)c1cnc(-c2ccc3cc(C#N)cnn23)cc1N[C@H]1C[C@H](CNC(=O)[C@@H]2CC2(F)F)C1` [Example 699, 6-(3-cyanopyrrolo[1,2-b]pyridazin-7-yl)-4-(((1S,3R)-3-(((S)-2,2-difluorocyclopropane-1-carboxamido)methyl)cyclo-butyl)amino)-N-((R)-2-fluoro-3-hydroxy-3-methylbutyl)nicotinamide], the IC50 in experiment [1] is < 1 nM. Moreover, the EC50 in experiment [2] amounted to 36 nM.

Turning to `CC(C)(O)[C@H](F)CNC(=O)c1cnc(-c2ccc3cc(C#N)cnn23)cc1N[C@H]1C[C@H](CNCC(F)(F)F)C1` [Example 700, 6-(3-cyanopyrrolo[1,2-b]pyridazin-7-yl)-N—((R)-2-fluoro-3-hydroxy-3-methylbutyl)-4-(((1r,3R)-3-(((2,2,2-trifluoroethyl)amino)methyl)cyclobutyl)amino)nicotinamide], the IC50 in experiment [1] was determined as 2 nM. The EC50 in experiment [2] is 151 nM.

`CC(C)(O)[C@H](F)CNC(=O)c1cnc(-c2ccc3cc(C#N)cnn23)cc1N[C@H]1C[C@H](CN2CCOCC2)C1` [Example 701, 6-(3-cyanopyrrolo[1,2-b]pyridazin-7-yl)-N-((R)-2-fluoro-3-hydroxy-3-methylbutyl)-4-(((1r,3R)-3-(morpholino-methyl)cyclobutyl)amino)nicotinamide] gave an IC50 in experiment [1] of 4 nM. Moreover, the EC50 in experiment [2] is 191 nM.

For the compound `CC(C)(O)[C@H](F)CNC(=O)c1cnc(-c2ccc3cc(C#N)cnn23)cc1N[C@H]1C[C@H](CNC2COC2)C1` [Example 702, 6-(3-cyanopyrrolo[1,2-b]pyridazin-7-yl)-N—((R)-2-fluoro-3-hydroxy-3-methylbutyl)-4-(((1r,3R)-3-((oxetan-3-ylamino)methyl)cyclobutyl)amino)nicotinamide], the IC50 in experiment [1] was < 1 nM. Besides, the EC50 in experiment [2] was found to be 119 nM.

In the case of `CC(C)(O)[C@H](F)CNC(=O)c1cnc(-c2ccc3cc(C#N)cnn23)cc1NCC1CCC1` [Example 703, (R)-6-(3-cyano-pyrrolo[1,2-b]pyridazin-7-yl)-4-((cyclobutyl-methyl)amino)-N-(2-fluoro-3-hydroxy-3-methylbutyl)nicotinamide], the IC50 in experiment [1] is < 1 nM. In addition, in experiment [2], the EC50 was 45 nM.

Regarding `CC(C)(O)[C@H](F)CNC(=O)c1cnc(-c2ccc3cc(C#N)cnn23)cc1N[C@H]1C[C@H](Cn2cc(C3CC3)nn2)C1` [Example 704, 6-(3-cyanopyrrolo[1,2-b]pyridazin-7-yl)-4-(((1r,3R)-3-((4-cyclopropyl-1H-1,2,3-triazol-1-yl)methyl)cyclobutyl)amino)-N—((R)-2-fluoro-3-hydroxy-3-methylbutyl)nicotinamide], the IC50 in experiment [1] was determined as 1 nM. Besides, the EC50 in experiment [2] stood at 69 nM.
